Assays:
Assay type in all cases: in vivo
[1] = system: house dust mites; assay: Effect against house dust mites, method not stated (one of the two methods); conditions: for cuts in the number of mites: without zinc pyrithione, at concentrations normally used for antimicrobial finishing, reduction to zero mites not quite achieved; for growth in the population of mites by a factor: control factor 2.6
From the text: On polyurethane foams based on polyester polyol, 2000 ppm of zinc pyrithione allowed a growth in the population of mites by a factor of 1.6, which is only insignificantly less than the corresponding control sample at a factor of 2.6. In the case of plasticized PVC, even 3000 ppm of zinc pyrithione allowed a growth in the population of mites by a factor of 1.4, while the PVC control sample returned a growth of again by a factor of 2.6. Both values are insufficient for the protection of the finished articles against colonization by mites, but they do form the basis for enhancement of the protection without the complete effect having to be supplied by the other active, permethrin for example.
(§1) Testing of the effect against house dust mites was carried out in the experiments according to one of the two methods described hereinbelow: • 1. The textile sample is cut to a size of 8×8 cm and placed on a glass plate of the same size. About 50 house dust mites in the adult stage, which were counted under the microscope, were placed in the center of the sample. Other stages were likewise present of course but are not counted. Some food (see method 2) is added. A 5 mm thick rubber plate with a 30 mm diameter hole in the middle is placed on the sample. The hole is covered from the top with a filter paper, and a metal plate with a hole in the middle is placed on the filter paper such that the hole is congruently positioned above the hole in the rubber plate. The sample plates thus prepared are fixed with clips and are then incubated for 6 or 8 weeks in an incubator at saturated humidity at 25° C. After the period of 6 or 8 weeks, the living adult mites were again counted under the microscope. In this method, the change in the number of mites compared with the initial value is calculated. The test is carried out in duplicate. • 2. The AFNOR NF G 39-011 test method, as carried out for example by TEC Laboratory, F-64600 Anglet, again utilizes 50 adult house dust mites, Dermatophagoides pteronyssinus, per test sample, which come from a stock culture from INRA Bordeaux and were bred for several years at 76% humidity at 25° C. in the complete absence of insecticides. The mites were fed on a mixture of wheat germ and brown brewer's yeast. The test is carried out at 17 to 23° C. The test duration is six weeks, and the mites are counted after they were driven out by application of heat. The test is carried out in quadruplicate. The reduction in the number of mites after six weeks compared with a non-finished control sample is determined.

[2] = system: house dust mites; assay: Method 1: live adult house dust mites counted on the textile sample after 6 or 8 weeks, change versus initial value
Description: as §1, with “The” for “Testing of the effect against house dust mites was carried out in the experiments according to one of the two methods described hereinbelow: • 1. The”, “After the period of 6 or 8 weeks, the living adult mites were again counted under the microscope.” left out, “[…],” for “F-64600 Anglet,”

[3] = system: Dermatophagoides pteronyssinus; assay: Method 2: AFNOR NF G 39-011 test, reduction in number of mites after six weeks versus non-finished control; conditions: cotton/polyester mattress ticking
Description: as §1, with “The” for “Testing of the effect against house dust mites was carried out in the experiments according to one of the two methods described hereinbelow: • 1. The”, “After the period of 6 or 8 weeks, the living adult mites were again counted under the microscope.” left out, “[…],” for “F-64600 Anglet,”

| Molecule | cuts in the number of mites [1] | reduction in the number of live mites, average ([2]; Example 11: 1000 ppm on cotton, 6 weeks, control growth rate 273%) | reduction in the number of live mites ([2]; Example 11: 1400 ppm on polyester furniture covering fabric, 6 weeks, control growth rate 273%) | live mites on samples after the test ([2]; Example 3: 1.0% of aqueous dispersion comprising 15% zinc pyrithione padded with 3% NUVA TTC or 4% NUVA HPU or 4% NUVA HPC onto cotton, polyester or polyamide, cured 150° C. 90 seconds) | live mites on samples after the test ([2]; Example 6: 0.4% of aqueous formulation comprising 48% zinc pyrithione padded with wetting agent and nonionized surfactant onto woven cotton, dried 180° C. 1 minute) | mite inhibition rate (MIR) compared with the non-finished control fabric, average ([3]; Example 5: 1.0% of formulation comprising 15% zinc pyrithione with 3% to 5% acrylate copolymers) | mites on samples after the test ([3]; Example 5: 1.2% of formulation comprising 15% zinc pyrithione with 3% to 5% acrylate copolymers) | mites on samples after the test ([3]; Example 5: 1.5% of formulation comprising 15% zinc pyrithione with 3% to 5% acrylate copolymers) | growth in the population of mites by a factor ([1]; plasticized PVC, 3000 ppm of zinc pyrithione) | growth in the population of mites by a factor ([1]; polyurethane foams based on polyester polyol, 2000 ppm of zinc pyrithione) |
| --- | --- | --- | --- | --- | --- | --- | --- | --- | --- | --- |
| CCCCCCCCn1sccc1=O [2-n-octylisothiazolin-3-one] | fairly good cuts in the number of mites |  |  |  |  |  |  |  |  |  |
| Oc1cc(Cl)ccc1Oc1ccc(Cl)cc1Cl [triclosan] | fairly good cuts in the number of mites | 57% | 38% |  |  |  |  |  |  |  |
| zinc pyrithione |  |  |  | no longer any live mites | no longer any live mites | 99.3% | completely free of mites | completely free of mites | 1.4 | 1.6 |
